The values below come from PMC12196213, “New Insights into the Anticancer Effects and Toxicogenomic Safety of Two β-Lapachone Derivatives” (Pharmaceuticals, 2025).

The subject of test [1] is MDA-MB-231 (human breast adenocarcinoma). Briefly: MTT cytotoxicity assay, MDA-MB-231. The following applies: for IC50: Homo sapiens, MDA-MB-231, MDA-MD-231 (so in the source), 72 h, MTT; for selectivity index (SI): IC50 L929 / IC50 MDA-MD-231, 72 h. In kind it is cell-based. On the procedure: To assess the cytotoxicity of the compounds, the MTT [3-(4,5-dimethylthiazol-2-yl)-2,5-diphenyltetrazolium bromide] assay was employed. The cells (2 × 10^5/mL) were incubated with the substances at concentrations ranging from 0.78 to 25 µg/mL. β-lap was used as a positive control. After 24, 48, or 72 h of incubation, MTT was added at a concentration of 5 mg/mL. Cell viability in different treatments was compared to the negative control using the following formula: Cell viability%=mean absorbance of treated samples/mean absorbance of negative control×100 The IC50 (the concentration that inhibits 50% of cell growth compared to the negative control) was calculated using nonlinear regression in GraphPad Prism 8.0 for Windows (GraphPad Demo Software, San Diego, CA, USA). Experiments were performed in triplicate and in two independent experiments. The protocol is also described in other previous publications. The IC50 of normal and cancer cells was used to calculate the SI of compounds BV3 and BV5. The SI indicated the selectivity of the compounds among the normal cell line (L-929) and a cancer cell line (HCT-116, MDA-MB-231, HepG2, or HeLa). SI is a crucial parameter for therapeutic applications in upcoming clinical trials. Therefore, the following formula was used to calculate SI: SI=IC50(normal cell line)/IC50(cancer cell line)
On the technique in general: Tetrazolium assays rely on reduction of a dye to a coloured formazan, in cell work by metabolically active cells.

Another test concerns the target PIM1 (Homo sapiens, UniProt P11309). Briefly: ADP-Glo kinase assay. In kind it is biochemical. The conditions noted are these: for remaining activity at 1 µM: PIM1, 1 µM compound; for remaining activity at 1 µM / remaining activity at 10 µM: 10 µM ATP, read-out: % of residual activity; for remaining activity at 10 µM: PIM1, 10 µM compound. On the procedure:
(§1) Kinase enzymatic activities of CDK5/p25, CDK9/CyclinT, HASPIN, PIM1, GSK3β, CK1ε, ABL1, and JAK3 were assayed using the luminescent ADP detection assay described in Zegzouti et al. (ADP-GloTM assay kit provided by Promega, Madison, WI, USA). Briefly, the reactions were carried out in appropriate kinase buffer, with either protein or peptide as substrate in the presence of 10 µM ATP. Assay conditions used for each kinase tested here are described in Ibrahim et al.. The Envision (PerkinElmer, Waltham, MA, USA) microplate luminometer was used to measure the transmitted signal expressed in Relative Light Unit (RLU). In order to determine the half maximal inhibitory concentration (IC50), the assays were performed in duplicate in the absence or presence of increasing doses of the tested compounds. Kinase activities are expressed in % of maximal activity, i.e., measured in the absence of inhibitor but with a similar dose of DMSO (solvent of the tested compounds).
(In ADP-Glo the light output rises with the ADP produced.)

The target in the next test is T1, JAK3 (Homo sapiens, UniProt P52333).
T1 sequence (P52333 1-1124): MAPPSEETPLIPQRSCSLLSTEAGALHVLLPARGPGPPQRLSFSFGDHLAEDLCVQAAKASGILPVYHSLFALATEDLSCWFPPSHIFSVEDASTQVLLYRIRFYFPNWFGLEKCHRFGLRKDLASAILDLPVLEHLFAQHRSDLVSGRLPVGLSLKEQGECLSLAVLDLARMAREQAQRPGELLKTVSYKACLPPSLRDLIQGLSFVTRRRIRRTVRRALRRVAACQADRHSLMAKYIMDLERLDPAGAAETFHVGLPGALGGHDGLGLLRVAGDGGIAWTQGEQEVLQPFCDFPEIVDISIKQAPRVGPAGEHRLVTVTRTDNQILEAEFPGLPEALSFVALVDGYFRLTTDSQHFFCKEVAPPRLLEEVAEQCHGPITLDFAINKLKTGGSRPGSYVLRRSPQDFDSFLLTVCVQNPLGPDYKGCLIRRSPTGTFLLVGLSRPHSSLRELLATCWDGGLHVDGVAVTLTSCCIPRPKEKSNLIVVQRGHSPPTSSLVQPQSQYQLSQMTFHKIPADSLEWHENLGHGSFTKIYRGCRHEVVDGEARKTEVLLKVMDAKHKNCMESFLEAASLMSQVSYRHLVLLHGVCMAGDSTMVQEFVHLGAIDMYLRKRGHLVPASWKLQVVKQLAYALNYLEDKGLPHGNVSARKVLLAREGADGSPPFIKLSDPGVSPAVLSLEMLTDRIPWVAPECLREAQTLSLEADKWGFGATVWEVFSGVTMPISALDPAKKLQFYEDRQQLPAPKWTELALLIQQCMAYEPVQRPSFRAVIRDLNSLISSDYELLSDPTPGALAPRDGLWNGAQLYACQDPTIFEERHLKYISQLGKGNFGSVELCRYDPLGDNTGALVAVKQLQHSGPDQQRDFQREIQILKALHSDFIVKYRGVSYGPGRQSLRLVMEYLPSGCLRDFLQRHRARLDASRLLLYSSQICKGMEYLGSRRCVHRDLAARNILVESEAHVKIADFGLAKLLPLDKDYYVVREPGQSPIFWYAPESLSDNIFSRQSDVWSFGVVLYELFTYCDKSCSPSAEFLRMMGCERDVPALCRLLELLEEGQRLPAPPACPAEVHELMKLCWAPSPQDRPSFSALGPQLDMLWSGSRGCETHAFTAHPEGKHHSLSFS
Briefly: ADP-Glo kinase assay. The test is classed as biochemical. The conditions noted are these: for remaining activity at 1 µM: JAK3, 1 µM compound; for remaining activity at 1 µM / remaining activity at 10 µM: 10 µM ATP, read-out: % of residual activity; for remaining activity at 10 µM: JAK3, 10 µM compound. On the procedure:
as §1

Another test addresses ABL1 (Homo sapiens, UniProt P00519). Briefly: ADP-Glo kinase assay. In kind it is biochemical. The conditions noted are these: 10 µM ATP, read-out: % of residual activity; for remaining activity at 1 µM: ABL1, 1 µM compound; for remaining activity at 10 µM: ABL1, 10 µM compound. On the procedure:
as §1

A further test concerns the target GSK3β (Homo sapiens, UniProt P49841). The test can be described thus: ADP-Glo kinase assay. The conditions noted are these: for remaining activity at 1 µM: 1 µM compound; for remaining activity at 1 µM / remaining activity at 10 µM: read-out: % of residual activity; for remaining activity at 10 µM: 10 µM compound. The test is classed as biochemical. The method, then:
as §1

Another test concerns the target CDK9/CyclinT (Homo sapiens, UniProt P50750). The test can be described thus: ADP-Glo kinase assay. In kind it is biochemical. The following applies: 10 µM ATP, read-out: % of residual activity; for remaining activity at 1 µM: 1 µM compound; for remaining activity at 10 µM: 10 µM compound. On the procedure:
as §1

The target in another test is CDK5/p25 (Homo sapiens, UniProt Q00535). The test can be described thus: ADP-Glo kinase assay. In kind it is biochemical. The following applies: 10 µM ATP, read-out: % of residual activity; for remaining activity at 1 µM: CDK5/p25, 1 µM compound; for remaining activity at 10 µM: CDK5/p25, 10 µM compound. The method, then:
as §1

For a further test, the target named is CK1ε (Homo sapiens, UniProt P49674). Briefly: ADP-Glo kinase assay. The test is classed as biochemical. The following applies: 10 µM ATP, read-out: % of residual activity; for remaining activity at 1 µM: 1 µM compound; for remaining activity at 10 µM: 10 µM compound. The method, then: as §1
CK1ε, sequence (P49674 whole entry): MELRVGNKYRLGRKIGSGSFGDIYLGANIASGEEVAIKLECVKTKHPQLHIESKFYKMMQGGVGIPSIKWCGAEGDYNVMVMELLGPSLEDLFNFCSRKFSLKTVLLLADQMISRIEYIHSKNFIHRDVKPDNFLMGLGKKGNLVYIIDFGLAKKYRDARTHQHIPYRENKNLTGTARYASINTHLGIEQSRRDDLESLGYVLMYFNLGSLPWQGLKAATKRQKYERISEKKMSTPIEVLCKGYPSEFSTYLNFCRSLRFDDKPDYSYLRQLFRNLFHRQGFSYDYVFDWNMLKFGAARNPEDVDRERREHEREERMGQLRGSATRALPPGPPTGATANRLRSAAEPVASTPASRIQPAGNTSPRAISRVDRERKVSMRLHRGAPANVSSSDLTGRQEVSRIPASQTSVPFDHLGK
The mark [2] stands for this setting: PIM1, dose–response curve, Figure 5.
Where [3] appears, read: JAK3, dose–response curve, Figure 5.

A value given as a limit tells only on which side of the number the result lay.

GSK3β, sequence (P49841 whole entry): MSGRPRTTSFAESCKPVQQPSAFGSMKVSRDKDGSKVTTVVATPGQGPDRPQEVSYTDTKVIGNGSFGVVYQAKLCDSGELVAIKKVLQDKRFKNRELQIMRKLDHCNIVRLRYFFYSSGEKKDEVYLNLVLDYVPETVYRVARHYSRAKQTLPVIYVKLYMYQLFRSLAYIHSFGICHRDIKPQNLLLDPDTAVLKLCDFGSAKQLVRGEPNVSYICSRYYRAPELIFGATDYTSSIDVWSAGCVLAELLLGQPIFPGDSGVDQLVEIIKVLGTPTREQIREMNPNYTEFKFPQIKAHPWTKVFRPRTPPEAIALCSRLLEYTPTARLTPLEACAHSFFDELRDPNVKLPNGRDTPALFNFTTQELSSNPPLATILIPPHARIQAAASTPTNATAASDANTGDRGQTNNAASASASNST
CDK5/p25, sequence (Q00535 whole entry): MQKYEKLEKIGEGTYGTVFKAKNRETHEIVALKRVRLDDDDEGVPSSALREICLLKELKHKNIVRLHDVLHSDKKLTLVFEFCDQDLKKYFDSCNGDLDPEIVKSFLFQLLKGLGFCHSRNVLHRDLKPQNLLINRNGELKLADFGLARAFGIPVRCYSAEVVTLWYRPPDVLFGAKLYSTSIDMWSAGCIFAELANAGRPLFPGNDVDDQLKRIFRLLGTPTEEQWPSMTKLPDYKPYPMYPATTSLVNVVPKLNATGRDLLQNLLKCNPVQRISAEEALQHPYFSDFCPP
CDK5/p25, sequence (Q15078 99-307 partner limits assumed): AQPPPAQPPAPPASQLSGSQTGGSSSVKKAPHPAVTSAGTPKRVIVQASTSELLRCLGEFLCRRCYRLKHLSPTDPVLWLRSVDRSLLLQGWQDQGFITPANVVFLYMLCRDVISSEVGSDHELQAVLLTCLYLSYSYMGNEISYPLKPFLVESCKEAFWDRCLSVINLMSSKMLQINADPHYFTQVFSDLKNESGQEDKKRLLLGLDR
ABL1, sequence (P00519 whole entry): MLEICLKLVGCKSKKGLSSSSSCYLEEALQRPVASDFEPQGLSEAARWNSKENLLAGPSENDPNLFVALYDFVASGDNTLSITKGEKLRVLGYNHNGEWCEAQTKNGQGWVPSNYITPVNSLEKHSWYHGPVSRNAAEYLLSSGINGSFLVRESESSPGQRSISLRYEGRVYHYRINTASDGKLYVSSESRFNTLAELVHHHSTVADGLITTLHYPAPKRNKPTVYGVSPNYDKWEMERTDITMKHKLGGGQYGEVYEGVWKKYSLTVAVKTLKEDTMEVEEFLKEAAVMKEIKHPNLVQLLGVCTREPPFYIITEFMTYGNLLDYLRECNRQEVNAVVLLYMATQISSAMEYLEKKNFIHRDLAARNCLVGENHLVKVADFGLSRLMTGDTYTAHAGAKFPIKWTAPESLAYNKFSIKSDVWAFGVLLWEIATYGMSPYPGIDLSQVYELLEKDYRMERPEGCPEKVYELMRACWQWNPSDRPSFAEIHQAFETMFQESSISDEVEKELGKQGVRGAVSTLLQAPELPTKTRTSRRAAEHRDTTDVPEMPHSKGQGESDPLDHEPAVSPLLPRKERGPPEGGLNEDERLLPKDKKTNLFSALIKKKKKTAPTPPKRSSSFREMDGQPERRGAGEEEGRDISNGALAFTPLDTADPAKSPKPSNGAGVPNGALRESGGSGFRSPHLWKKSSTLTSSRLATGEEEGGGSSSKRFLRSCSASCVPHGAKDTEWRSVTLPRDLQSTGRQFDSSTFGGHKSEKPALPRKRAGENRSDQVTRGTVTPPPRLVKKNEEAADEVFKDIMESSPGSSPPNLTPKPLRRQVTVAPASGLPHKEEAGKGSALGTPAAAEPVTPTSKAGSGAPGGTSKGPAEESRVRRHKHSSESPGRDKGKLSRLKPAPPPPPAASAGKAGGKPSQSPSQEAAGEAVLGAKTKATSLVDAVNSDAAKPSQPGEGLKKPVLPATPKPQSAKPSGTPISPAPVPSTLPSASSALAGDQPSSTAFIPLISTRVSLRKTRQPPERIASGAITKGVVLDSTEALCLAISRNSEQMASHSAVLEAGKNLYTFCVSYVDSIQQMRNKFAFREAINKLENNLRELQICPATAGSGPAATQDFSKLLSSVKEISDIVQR
PIM1, sequence (P11309 whole entry): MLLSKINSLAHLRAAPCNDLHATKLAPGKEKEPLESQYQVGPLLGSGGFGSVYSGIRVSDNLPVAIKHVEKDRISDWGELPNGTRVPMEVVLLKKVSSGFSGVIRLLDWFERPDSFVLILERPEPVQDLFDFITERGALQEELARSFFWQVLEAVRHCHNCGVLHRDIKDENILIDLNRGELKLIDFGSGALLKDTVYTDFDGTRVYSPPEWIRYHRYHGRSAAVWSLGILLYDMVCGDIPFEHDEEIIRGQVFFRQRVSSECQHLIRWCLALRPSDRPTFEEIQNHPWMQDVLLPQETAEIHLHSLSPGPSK
CDK9/CyclinT, sequence (P50750 whole entry): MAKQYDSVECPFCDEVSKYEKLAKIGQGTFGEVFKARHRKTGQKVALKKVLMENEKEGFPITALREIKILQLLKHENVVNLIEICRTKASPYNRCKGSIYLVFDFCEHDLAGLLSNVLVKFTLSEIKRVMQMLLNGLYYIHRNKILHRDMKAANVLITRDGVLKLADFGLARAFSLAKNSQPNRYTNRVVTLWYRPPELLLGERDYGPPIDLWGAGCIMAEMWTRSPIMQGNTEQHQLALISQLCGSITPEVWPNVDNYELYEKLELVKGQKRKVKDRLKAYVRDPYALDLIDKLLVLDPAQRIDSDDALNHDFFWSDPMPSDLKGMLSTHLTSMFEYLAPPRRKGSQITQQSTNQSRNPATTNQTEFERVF
CDK9/CyclinT, sequence (O60563 whole entry partner): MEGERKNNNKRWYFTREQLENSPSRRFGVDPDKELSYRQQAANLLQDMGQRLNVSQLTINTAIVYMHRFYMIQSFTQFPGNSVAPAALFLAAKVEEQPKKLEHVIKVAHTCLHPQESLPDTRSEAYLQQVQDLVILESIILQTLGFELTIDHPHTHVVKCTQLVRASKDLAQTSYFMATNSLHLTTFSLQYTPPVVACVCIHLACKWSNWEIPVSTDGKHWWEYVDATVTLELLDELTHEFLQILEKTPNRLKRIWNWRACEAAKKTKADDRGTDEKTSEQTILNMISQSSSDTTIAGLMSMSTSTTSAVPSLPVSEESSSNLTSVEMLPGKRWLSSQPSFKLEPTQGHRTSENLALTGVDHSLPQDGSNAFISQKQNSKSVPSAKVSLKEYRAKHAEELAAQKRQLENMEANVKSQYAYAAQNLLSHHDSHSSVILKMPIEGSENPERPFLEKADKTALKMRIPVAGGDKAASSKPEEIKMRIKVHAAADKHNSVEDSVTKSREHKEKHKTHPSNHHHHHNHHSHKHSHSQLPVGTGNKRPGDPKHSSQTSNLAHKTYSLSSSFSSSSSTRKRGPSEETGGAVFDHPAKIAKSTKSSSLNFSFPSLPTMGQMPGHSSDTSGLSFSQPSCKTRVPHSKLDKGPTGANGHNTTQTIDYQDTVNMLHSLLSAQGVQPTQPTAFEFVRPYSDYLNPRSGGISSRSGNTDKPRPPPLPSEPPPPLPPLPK

For `CC1(C)CCC2=C(O1)c1ccccc1/C(=N/NC(=S)Nc1ccc([N+](=O)[O-])cc1)C2=O` [BV3, 2-(2,2-dimethyl-5-oxo-3,4-dihydro-2H-benzo[h]chromen-6(5H)-ylidene)-N-(4nitrophen-yl)thio-carbohydrazide], the IC50 (in general, the point on the concentration scale where inhibition reaches its midpoint) worked out at 16.5 µM in test [1]; 4.15 µM against PIM1 (PIM1, 10 µM ATP); 4.16 µM on PIM1 (setting [2]); 0.115 µM against JAK3 (setting [3]); 1 µM at GSK3β (10 µM ATP); 1 µM against GSK3β (dose–response curve, Figure 5). Further, the “selectivity index (SI)” value in test [1] came to 2.66. The remaining activity at 1 µM on PIM1 is ≥ 100%; on JAK3, -3%; at ABL1 it was 52%; on GSK3β (10 µM ATP) it was 58%; on CDK9/CyclinT, ≥ 100%; on CDK5/p25, ≥ 100%. Besides, the remaining activity at 1 µM at CK1ε was ≥ 100%. Moreover, the remaining activity at 10 µM at PIM1 was 18%; on JAK3 it was -9%; at ABL1 it was 35%; at GSK3β (10 µM ATP) it was 7%; on CDK9/CyclinT, 67%; on CDK5/p25, 44%. The remaining activity at 10 µM at CK1ε was found to be 98%.

`Cc1ccc(NC(=S)N/N=C2\C(=O)C3=C(OC(C)(C)CC3)c3ccccc32)cc1` [BV5, 2-(2,2-dimethyl-5-oxo-3,4-dihydro-2H-benzo[h]chromen-6(5H)-ylidene)-N-(p-tolyl)-thiocarbohydrazide]: the IC50 in test [1] worked out at 15.5 µM; against PIM1 (PIM1, 10 µM ATP), 8.74 µM; at PIM1 (setting [2]), 8.74 µM; against JAK3 (JAK3, 10 µM ATP), 0.52 µM; against JAK3 (setting [3]) it was 0.522 µM; at GSK3β (10 µM ATP) it was 4.91 µM. Also, the remaining activity at 1 µM is 94% at PIM1; 64% on JAK3; 83% at ABL1; 64% at GSK3β (10 µM ATP); ≥ 100% at CDK9/CyclinT; ≥ 100% on CDK5/p25. In addition, the remaining activity at 1 µM at CK1ε is 98%. For the same molecule, the remaining activity at 10 µM worked out at 42% on PIM1; 4% on JAK3; 56% at ABL1; 24% on GSK3β (10 µM ATP); 78% on CDK9/CyclinT; 62% at CDK5/p25. Besides, the remaining activity at 10 µM at CK1ε was 86%.

`CC1(C)CCC2=C(O1)c1ccccc1C(=O)C2=O` [β-lap, β-Lapachone] returned an IC50 in test [1] of 3.38 µM. Moreover, in test [1], the “selectivity index (SI)” value is listed as 1.34. Also, the remaining activity at 1 µM at PIM1 was 56%; on JAK3, 65%; on ABL1 it was 83%; at GSK3β (10 µM ATP) it was 67%; on CDK9/CyclinT, ≥ 100%; on CDK5/p25, 74%. Moreover, on CK1ε, the remaining activity at 1 µM was ≥ 100%. Besides, the remaining activity at 10 µM on PIM1 was 42%; on JAK3, 69%; at ABL1 it was 81%; at GSK3β (10 µM ATP), 43%; at CDK9/CyclinT, 72%; at CDK5/p25 it was 88%. Moreover, at CK1ε, the remaining activity at 10 µM amounted to 94%.
